Laboratory results from patent US20240150340A1, “CDK Inhibitors And Their Use As Pharmaceuticals” (Prelude Therapeutics Incorporated, priority 2022, published 2024).

How the values were obtained:
OVCAR3 p-RB = experiment: pRB ICW Assay in OVCAR3 Cells; type: cell-based; details: Homo sapiens, OVCAR-3, incubated with compound for 2 hours
Outline: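 OVCAR3 cells were treated 2 h at 37° C. with a 9-point half-log compound series, duplicate wells, with 10 μM reference compound as maximum inhibition. Fixed, permeabilized cells were stained with anti-phospho-RB plus DRAQ5 and imaged at 700/800 nm (In-Cell Western).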

CDK2/Cyclin E2 = target: T1, CDK2/Cyclin E2 (Homo sapiens, UniProt P24941); experiment: CDK2/CyclinE2 Enzymatic Activity Assay (TR-FRET); type: biochemical; details: ATP 1 mM final, read-out: CDK2_E1 IC50
T1 construct: Recombinant protein complex CDK2/Cyclin E2, expressed from insect cell, was purchased from ProQinase
Outline: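 Recombinant insect-cell CDK2/Cyclin E2 (1 nM) phosphorylated ULight-4E-BP1 (50 nM) with 1 mM ATP in HEPES pH 7.4 buffer, after 20 min compound preincubation; MgCl2 (10 mM) started the 45 min reaction at 37° C. Europium anti-phospho-4E-BP1 TR-FRET read; 9-dose IC50 by 4-parameter fit.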

CDK4/Cyclin D1 = target: T2, CDK4/Cyclin D1 (Homo sapiens, UniProt P11802); experiment: CDK4/CyclinD1 Enzymatic Activity Assay (TR-FRET); type: biochemical; details: ATP 2 mM final, read-out: CDK4_D1 IC50
T2 construct: purchased ProQinase; host or cells: insect cell
Outline: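 Insect-cell-expressed CDK4/Cyclin D1 (1 nM) with ULight-4E-BP1 (100 nM) and 2 mM ATP in HEPES pH 7.4; 9-dose 3-fold compound series preincubated 20 min, reaction started with 10 mM MgCl2, 45 min at 37° C. Europium anti-P-4E-BP1 TR-FRET read; IC50 from 4-parameter Hill fit.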

T2 sequence (P11802 whole entry): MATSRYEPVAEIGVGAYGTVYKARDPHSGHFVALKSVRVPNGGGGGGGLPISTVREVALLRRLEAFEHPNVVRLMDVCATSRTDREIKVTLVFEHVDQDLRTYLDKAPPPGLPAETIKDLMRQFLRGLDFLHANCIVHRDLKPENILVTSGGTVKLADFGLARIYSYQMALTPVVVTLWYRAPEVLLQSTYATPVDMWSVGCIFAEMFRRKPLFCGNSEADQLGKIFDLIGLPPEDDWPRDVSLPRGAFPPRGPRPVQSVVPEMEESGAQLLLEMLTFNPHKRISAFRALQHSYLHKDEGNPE
T2 sequence (P24385 whole entry partner): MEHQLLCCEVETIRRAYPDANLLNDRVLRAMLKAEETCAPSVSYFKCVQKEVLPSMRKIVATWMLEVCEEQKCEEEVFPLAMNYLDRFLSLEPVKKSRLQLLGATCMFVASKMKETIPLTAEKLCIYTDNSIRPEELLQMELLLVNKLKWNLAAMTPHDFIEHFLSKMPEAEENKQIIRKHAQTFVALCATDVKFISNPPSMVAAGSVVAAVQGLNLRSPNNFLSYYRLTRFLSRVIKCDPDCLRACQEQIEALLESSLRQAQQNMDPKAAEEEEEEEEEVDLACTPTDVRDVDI

SMILES	IC50 (OVCAR3 p-RB) [nM]	IC50 (CDK2/Cyclin E2) [nM]	IC50 (CDK4/Cyclin D1) [nM]
Cn1cnc(S(=O)(=O)N2CCC(Nc3ncc(C(F)(F)F)c(-c4cc(C(N)=O)ns4)n3)CC2)c1 [Example 50, 5-(2-((1-((1-methyl-1H-imidazol-4-yl)sulfonyl)piperidin-4-yl)amino)-5-(trifluoromethyl)pyrimidin-4-yl)isothiazole-3-carboxamide]	≤ 100	≤ 100	≤ 100
Cc1sc(-c2nc(N[C@H]3CCN(S(=O)(=O)c4cn(C)cn4)C[C@H]3C)ncc2C(F)(F)F)cc1C#N [Example 53, 2-methyl-5-(2-(((3R,4S)-3-methyl-1-((1-methyl-1H-imidazol-4-yl)sulfonyl)piperidin-4-yl)amino)-5-(trifluoromethyl)pyrimidin-4-yl)thiophene-3-carbonitrile]	> 500	≤ 100	100 to 500
Cc1sc(-c2nc(N[C@H]3CCN(S(C)(=O)=O)C[C@H]3C)ncc2C(F)(F)F)cc1C#N [Example 54, 2-methyl-5-(2-(((3R,4S)-3-methyl-1-(methylsulfonyl)piperidin-4-yl)amino)-5-(trifluoromethyl)pyrimidin-4-yl)thiophene-3-carbonitrile]	> 500	≤ 100	> 500
Cc1sc(-c2nc(NC3CCN(S(=O)(=O)c4c[nH]cn4)CC3)ncc2C(F)(F)F)cc1C#N [Example 55, 5-(2-((1-((1H-imidazol-4-yl)sulfonyl)piperidin-4-yl)amino)-5-(trifluoromethyl)pyrimidin-4-yl)-2-methylthiophene-3-carbonitrile]	100 to 500	≤ 100	≤ 100
CC(O)c1cnc(-c2nc(NC3CCN(S(=O)(=O)c4cn[nH]c4)CC3)ncc2C(F)(F)F)s1 (stereo not drawn) [Example 56, 1-(2-(2-((1-((1H-pyrazol-4-yl)sulfonyl)piperidin-4-yl)amino)-5-(trifluoromethyl)pyrimidin-4-yl)thiazol-5-yl)ethan-1-ol]	≤ 100	≤ 100	≤ 100
CC(O)c1cnc(-c2nc(NC3CCN(S(=O)(=O)c4c[nH]cn4)CC3)ncc2C(F)(F)F)s1 (stereo not drawn) [Example 57, 1-(2-(2-((1-((1H-imidazol-4-yl)sulfonyl)piperidin-4-yl)amino)-5-(trifluoromethyl)pyrimidin-4-yl)thiazol-5-yl)ethan-1-ol]	≤ 100	≤ 100	≤ 100
Cn1cc(S(=O)(=O)N2CCC(Nc3ncc(C(F)(F)F)c(-c4nccs4)n3)CC2)cn1 [Example 58, N-(1-((1-methyl-1H-pyrazol-4-yl)sulfonyl)piperidin-4-yl)-4-(thiazol-2-yl)-5-(trifluoromethyl)pyrimidin-2-amine]	100 to 500	≤ 100	≤ 100
Cn1cnc(S(=O)(=O)N2CCC(Nc3ncc(C(F)(F)F)c(-c4nccs4)n3)CC2)c1 [Example 59, N-(1-((1-methyl-1H-imidazol-4-yl)sulfonyl)piperidin-4-yl)-4-(thiazol-2-yl)-5-(trifluoromethyl)pyrimidin-2-amine]	≤ 100	≤ 100	≤ 100
Cn1cnc(S(=O)(=O)N2CCC(Nc3ncc(C(F)(F)F)c(-c4ncc(C(O)C(F)(F)F)s4)n3)CC2)c1 (stereo not drawn) [Example 60, 2,2,2-trifluoro-1-(2-(2-((1-((1-methyl-1H-imidazol-4-yl)sulfonyl)piperidin-4-yl)amino)-5-(trifluoromethyl)pyrimidin-4-yl)thiazol-5-yl)ethan-1-ol]	≤ 100	≤ 100	≤ 100
Cn1cc(S(=O)(=O)N2CCC(Nc3ncc(C(F)(F)F)c(-c4ncc(C(O)C(F)(F)F)s4)n3)CC2)cn1 (stereo not drawn) [Example 61, 2,2,2-trifluoro-1-(2-(2-((1-((1-methyl-1H-pyrazol-4-yl)sulfonyl)piperidin-4-yl)amino)-5-(trifluoromethyl)pyrimidin-4-yl)thiazol-5-yl)ethan-1-ol]	≤ 100	≤ 100	≤ 100

Further lines, results first:

IC50 (OVCAR3 p-RB) [nM]	IC50 (CDK2/Cyclin E2) [nM]	IC50 (CDK4/Cyclin D1) [nM]	SMILES
≤ 100	≤ 100	≤ 100	Cn1cnc(S(=O)(=O)N2CC[C@H](Nc3ncc(C(F)(F)F)c(-c4cc(C#N)c(CC(C)(C)O)s4)n3)[C@H](F)C2)c1 [Example 42, 5-(2-(((3R,4S)-3-fluoro-1-((1-methyl-1H-imidazol-4-yl)sulfonyl)piperidin-4-yl)amino)-5-(trifluoromethyl)pyrimidin-4-yl)-2-(2-hydroxy-2-methylpropyl)thiophene-3-carbonitrile]
> 500	≤ 100	100 to 500	C[C@@H]1CN(S(C)(=O)=O)CC[C@@H]1Nc1ncc(C(F)(F)F)c(-c2cc(C(N)=O)c(CC(C)(C)O)s2)n1 [Example 43, 2-(2-hydroxy-2-methylpropyl)-5-(2-(((3R,4S)-3-methyl-1-(methylsulfonyl)piperidin-4-yl)amino)-5-(trifluoromethyl)pyrimidin-4-yl)thiophene-3-carboxamide]
≤ 100	≤ 100	≤ 100	C[C@@H]1CN(S(=O)(=O)c2cnn(C)c2)CC[C@@H]1Nc1ncc(C(F)(F)F)c(-c2cc(C(N)=O)c(CC(C)(C)O)s2)n1 [Example 44, 2-(2-hydroxy-2-methylpropyl)-5-(2-(((3R,4S)-3-methyl-1-((1-methyl-1H-pyrazol-4-yl)sulfonyl)piperidin-4-yl)amino)-5-(trifluoromethyl)pyrimidin-4-yl)thiophene-3-carboxamide]
≤ 100	≤ 100	≤ 100	Cn1cnc(S(=O)(=O)N2CCC(Nc3ncc(C(F)(F)F)c(-c4cc(C(N)=O)c(CC(C)(C)O)s4)n3)CC2)c1 [Example 45, 2-(2-hydroxy-2-methylpropyl)-5-(2-((1-((1-methyl-1H-imidazol-4-yl)sulfonyl)piperidin-4-yl)amino)-5-(trifluoromethyl)pyrimidin-4-yl)thiophene-3-carboxamide]
≤ 100	≤ 100	≤ 100	Cn1cc(S(=O)(=O)N2CC[C@H](Nc3ncc(C(F)(F)F)c(-c4cc(C(N)=O)c(CC(C)(C)O)s4)n3)[C@H](F)C2)cn1 [Example 46, 5-(2-(((3R,4S)-3-fluoro-1-((1-methyl-1H-pyrazol-4-yl)sulfonyl)piperidin-4-yl)amino)-5-(trifluoromethyl)pyrimidin-4-yl)-2-(2-hydroxy-2-methylpropyl)thiophene-3-carboxamide]
100 to 500	≤ 100	≤ 100	Cn1cnc(S(=O)(=O)N2CC[C@H](Nc3ncc(C(F)(F)F)c(-c4cc(C(N)=O)c(CC(C)(C)O)s4)n3)[C@H](F)C2)c1 [Example 47, 5-(2-(((3R,4S)-3-fluoro-1-((1-methyl-1H-imidazol-4-yl)sulfonyl)piperidin-4-yl)amino)-5-(trifluoromethyl)pyrimidin-4-yl)-2-(2-hydroxy-2-methylpropyl)thiophene-3-carboxamide]
≤ 100	≤ 100	≤ 100	Cn1cc(S(=O)(=O)N2CC[C@@H](Nc3ncc(C(F)(F)F)c(-c4cc(C(N)=O)c(CC(C)(C)O)s4)n3)[C@H](F)C2)cn1 [Example 48, 5-(2-(((3R,4R)-3-fluoro-1-((1-methyl-1H-pyrazol-4-yl)sulfonyl)piperidin-4-yl)amino)-5-(trifluoromethyl)pyrimidin-4-yl)-2-(2-hydroxy-2-methylpropyl)thiophene-3-carboxamide]
100 to 500	≤ 100	≤ 100	Cn1cnc(S(=O)(=O)N2CC[C@@H](Nc3ncc(C(F)(F)F)c(-c4cc(C(N)=O)c(CC(C)(C)O)s4)n3)[C@H](F)C2)c1 [Example 49, 5-(2-(((3R,4R)-3-fluoro-1-((1-methyl-1H-imidazol-4-yl)sulfonyl)piperidin-4-yl)amino)-5-(trifluoromethyl)pyrimidin-4-yl)-2-(2-hydroxy-2-methylpropyl)thiophene-3-carboxamide]
≤ 100	≤ 100	≤ 100	Cn1cc(S(=O)(=O)N2CCC(Nc3ncc(C(F)(F)F)c(-c4cc(C(N)=O)c(CC(C)(C)O)s4)n3)CC2)cn1 [Example 51, 2-(2-hydroxy-2-methylpropyl)-5-(2-((1-((1-methyl-1H-pyrazol-4-yl)sulfonyl)piperidin-4-yl)amino)-5-(trifluoromethyl)pyrimidin-4-yl)thiophene-3-carboxamide]
100 to 500	≤ 100	100 to 500	Cc1sc(-c2nc(N[C@H]3CCN(S(C)(=O)=O)C[C@H]3C)ncc2C(F)(F)F)cc1C(N)=O [Example 52, 2-methyl-5-(2-(((3R,4S)-3-methyl-1-(methylsulfonyl)piperidin-4-yl)amino)-5-(trifluoromethyl)pyrimidin-4-yl)thiophene-3-carboxamide]
≤ 100	≤ 100	≤ 100	Cn1cc(S(=O)(=O)N2CCC(Nc3ncc(C(F)(F)F)c(-c4ncc(CC(C)(C)O)s4)n3)CC2)cn1 [Example 62, 2-methyl-1-(2-(2-((1-((1-methyl-1H-pyrazol-4-yl)sulfonyl)piperidin-4-yl)amino)-5-(trifluoromethyl)pyrimidin-4-yl)thiazol-5-yl)propan-2-ol]
